# Measured values: patent publication US7838542B2, “Bicyclic compositions and methods for modulating a kinase cascade” (Kinex Pharmaceuticals, LLC, priority 2006, dated 2010)
# Values joined by “and” are separate entries in the source; they are usually repeats but may differ in a detail not shown here. Equal values may be shown once.
# Tests used:
# Chinchillas [1] = assay: Noise-induced hearing loss, round window application (Example 8); assay type: in vivo, chinchilla; design: threshold shift, 0.5 kHz / threshold shift, 1 kHz / threshold shift, 2 kHz / threshold shift, 4 kHz / threshold shift, 8 kHz / average threshold shift, 0.5 kHz / average threshold shift, 1 kHz / average threshold shift, 2 kHz / average threshold shift, 4 kHz / average threshold shift, 8 kHz: unit not given here; conditions: for average threshold shift, 0.5 kHz / average threshold shift, 1 kHz / average threshold shift, 2 kHz / average threshold shift, 4 kHz / average threshold shift, 8 kHz: Table XIV; for threshold shift, 0.5 kHz / threshold shift, 1 kHz / threshold shift, 2 kHz / threshold shift, 4 kHz / threshold shift, 8 kHz: individual animals, listed as CH65
# Description: Chinchillas (N=8) were used in studies of noise-induced hearing loss. The animals' hearing sensitivity was measured using standard electrophysical techniques before the experimental manipulation. […] Animals were anesthetized, the auditory bullae were opened, and the left and right cochleas were visualized. The round window leading to the scala tympani of the cochlea was used as the access point for drug application. […] In each case, the solution was allowed to set on the round window for 30 minutes, then the auditory bullae were closed. Subsequently, the animals were exposed to 4 kHz band noise at 105 dB SPL for four hours. Following the noise exposure, the animals' hearing was tested at day 1, day 3, day 7, and day 20 to determine evoked potential threshold shifts. Permanent threshold shift was assessed at day 20. The cochleas were harvested at day 20 to allow for morphological examination of the cochleas.
# Chinchillas [2] = assay: Noise-induced hearing loss, round window application (Example 12); assay type: in vivo, chinchilla; conditions: 4 kHz band noise at 105 dB SPL, four hours, day 1, 7, 21
# Description: Chinchillas (N=6) were used in studies of noise-induced hearing loss. The animals' hearing sensitivity was measured using standard electrophysical techniques before the experimental manipulation. […] Animals were anesthetized, the auditory bullae were opened, and the left and right cochleas were visualized. The round window leading to the scala tympani of the cochlea was used as the access point for drug application. […] A control solution of 3 mM DMSO in […] of saline solution was placed on the round window of the other ear. The solution was allowed to set on the round window for 30 minutes, then the auditory bullae were closed. Subsequently, the animals were exposed to 4 kHz band noise at 105 dB SPL for four hours. Following the noise exposure, the animals' hearing was tested at day 1, day 7, and day 21 to determine evoked potential threshold shifts. Permanent threshold shift was assessed at day 21.
# Guinea pigs = assay: Cisplatin-induced hearing loss; assay type: in vivo, guinea pig; conditions: subcutaneous, prior to cisplatin
# Description: The effects of high level noise and ototoxic drugs, such as cisplatin or the class of aminoglycosides, share several common features in the inner ear. First, the noise and/or drugs alter the free radical/antioxidant levels in the cochlea (inner ear). […] Guinea pigs (N=7) were used in studies of cisplatin-induced hearing loss. The animals' hearing sensitivity was measured using standard electrophysical techniques before the experimental manipulation. […] Animals were anesthetized and treated with cisplatin. Subsequently, the animals' hearing was tested to determine evoked potential threshold shifts.
# Animals were treated subcutaneously with KX1-004 prior to the cisplatin-induced hearing loss.
# pp60^c-src [3] = target: T1, pp60^c-src (Homo sapiens, UniProt P12931); conditions: literature value; read-out: IC50 (μM), Lit; cited from earlier work
# Target sequence in this assay (P12931 whole entry, species assumed): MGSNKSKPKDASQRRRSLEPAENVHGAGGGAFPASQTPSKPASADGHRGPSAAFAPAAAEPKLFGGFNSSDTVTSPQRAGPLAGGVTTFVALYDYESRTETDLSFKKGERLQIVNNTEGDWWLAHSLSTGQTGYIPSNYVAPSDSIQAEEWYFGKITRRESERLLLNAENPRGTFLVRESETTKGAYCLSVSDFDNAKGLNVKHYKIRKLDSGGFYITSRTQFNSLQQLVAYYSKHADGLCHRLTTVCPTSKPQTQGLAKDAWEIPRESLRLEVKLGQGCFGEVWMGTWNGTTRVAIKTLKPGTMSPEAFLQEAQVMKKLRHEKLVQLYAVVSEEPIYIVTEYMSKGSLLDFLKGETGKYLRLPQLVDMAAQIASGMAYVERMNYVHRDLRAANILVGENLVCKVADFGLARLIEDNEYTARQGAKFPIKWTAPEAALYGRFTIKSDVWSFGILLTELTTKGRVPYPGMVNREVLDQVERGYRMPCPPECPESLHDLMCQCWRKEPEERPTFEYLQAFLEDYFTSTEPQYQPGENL
# pp60^c-src [4] = target: T1, pp60^c-src; assay: Src inhibition (RR-SRC phosphorylation), Cellular Mimetic assay; conditions: inhibitor 100 μM; Table IX
# Target sequence in this assay (P12931 whole entry): as the sequence (P12931 whole entry, species assumed) above
smiles,measurement,setting,value
O=C(NCc1cccc(O)c1)c1cc2cc(F)ccc2[nH]1 [KX1-004],"average threshold shift, 0.5 kHz",Chinchillas [1]; Day 1,3.75
same,"average threshold shift, 1 kHz",Chinchillas [1]; Day 1,6.875
same,"average threshold shift, 2 kHz",Chinchillas [1]; Day 1,25
same,"average threshold shift, 4 kHz",Chinchillas [1]; Day 1,42
same,"average threshold shift, 8 kHz",Chinchillas [1]; Day 1,22.5
same,"threshold shift, 0.5 kHz",Chinchillas [1]; Day 1,0 (2×) and 5 and 10
same,"threshold shift, 1 kHz",Chinchillas [1]; Day 1,2.5 and 20 and 0 and 5
same,"threshold shift, 2 kHz",Chinchillas [1]; Day 1,0 and 25 and 20 and 55
same,"threshold shift, 4 kHz",Chinchillas [1]; Day 1,10 and 35 and 68 and 55
same,"threshold shift, 8 kHz",Chinchillas [1]; Day 1,0 and 30 and 35 and 25
same,"average threshold shift, 0.5 kHz",Chinchillas [1]; Day 3,5.4
same,"average threshold shift, 1 kHz",Chinchillas [1]; Day 3,6.9
same,"average threshold shift, 2 kHz",Chinchillas [1]; Day 3,18
same,"average threshold shift, 4 kHz",Chinchillas [1]; Day 3,27
same,"average threshold shift, 8 kHz",Chinchillas [1]; Day 3,15
same,"threshold shift, 0.5 kHz",Chinchillas [1]; Day 3,5 (3×) and 0 and 12
same,"threshold shift, 1 kHz",Chinchillas [1]; Day 3,7.5 and 5 and 2 and 0 and 20
same,"threshold shift, 2 kHz",Chinchillas [1]; Day 3,0 (2×) and 15 and 40 and 35
same,"threshold shift, 4 kHz",Chinchillas [1]; Day 3,10 and 0 and 25 and 55 and 45
same,"threshold shift, 8 kHz",Chinchillas [1]; Day 3,0 (2×) and 15 (2×) and 45
same,"average threshold shift, 0.5 kHz",Chinchillas [1]; Day 7,8
same,"average threshold shift, 1 kHz",Chinchillas [1]; Day 7,6
same,"average threshold shift, 2 kHz",Chinchillas [1]; Day 7,15
same,"average threshold shift, 4 kHz",Chinchillas [1]; Day 7,24
same,"average threshold shift, 8 kHz",Chinchillas [1]; Day 7,18
same,"threshold shift, 0.5 kHz",Chinchillas [1]; Day 7,0 and 5 and 8 and 15 and 12
same,"threshold shift, 1 kHz",Chinchillas [1]; Day 7,0 (3×) and 15 (2×)
same,"threshold shift, 2 kHz",Chinchillas [1]; Day 7,0 (2×) and 15 and 40 and 20
same,"threshold shift, 4 kHz",Chinchillas [1]; Day 7,0 and 5 and 15 and 55 and 45
same,"threshold shift, 8 kHz",Chinchillas [1]; Day 7,0 (2×) and 20 and 30 and 40
same,"average threshold shift, 0.5 kHz",Chinchillas [1]; Day 20,3
same,"average threshold shift, 1 kHz",Chinchillas [1]; Day 20,1.25
same,"average threshold shift, 2 kHz",Chinchillas [1]; Day 20,6.25
same,"average threshold shift, 4 kHz",Chinchillas [1]; Day 20,9
same,"average threshold shift, 8 kHz",Chinchillas [1]; Day 20,3.75
same,"threshold shift, 0.5 kHz",Chinchillas [1]; Day 20,0 (2×) and 5 and 7
same,"threshold shift, 1 kHz",Chinchillas [1]; Day 20,0 (3×) and 5
same,"threshold shift, 2 kHz",Chinchillas [1]; Day 20,0 (2×) and 15 and 10
same,"threshold shift, 4 kHz",Chinchillas [1]; Day 20,0 (2×) and 11 and 25
same,"threshold shift, 8 kHz",Chinchillas [1]; Day 20,−5 and 5 and 0 and 15
same,"average threshold shift, 0.5 kHz",Chinchillas [1]; Pretest,26.6
same,"average threshold shift, 1 kHz",Chinchillas [1]; Pretest,24.5
same,"average threshold shift, 2 kHz",Chinchillas [1]; Pretest,20
same,"average threshold shift, 4 kHz",Chinchillas [1]; Pretest,12.4
same,"average threshold shift, 8 kHz",Chinchillas [1]; Pretest,4
same,"threshold shift, 0.5 kHz",Chinchillas [1]; Pretest,30 and 35 and 25 and 20 and 23
same,"threshold shift, 1 kHz",Chinchillas [1]; Pretest,22.5 and 25 (4×)
same,"threshold shift, 2 kHz",Chinchillas [1]; Pretest,25 (3×) and 10 and 15
same,"threshold shift, 4 kHz",Chinchillas [1]; Pretest,20 and 10 and 12 and 5 and 15
same,"threshold shift, 8 kHz",Chinchillas [1]; Pretest,10 (2×) and 0 (3×)
same,protection against the noise exposure,"Chinchillas [1]; in vivo, listed as CH-65",provided protection against the noise exposure
same,"average dB threshold shifts, treated ears versus control",Chinchillas [2],lower
same,protection against cisplatin-induced hearing loss,Guinea pigs,protected against ciplatin-induced hearing loss
"CCOc1cc(/C=C(\C#N)C(N)=O)cc(CSc2ccccc2)c1O [ST-638, reference compound]",IC50,pp60^c-src [3],18 µM
same,% Inhibition at 100 μM (std. dev.),pp60^c-src [4],37 (+/−5) %
